# According to patent US20210315893A1 (Galapagos NV, priority 2017, published 2021):
# Like-named read-outs stand apart in the source and are kept apart here.
# Tests used:
# [1] = biological target: T1, human GPCR sphingosine 1-phosphate receptor 2 (Homo sapiens, UniProt O95136); assay: S1PR2 antagonist Ca2+ flux assay; format: cell-based; details: antagonist mode, CHO-S1PR2 cells, S1P at EC80, Ca2+ fluorescence; read-out: S1P2 EC50 (nM), S1P2 antagonist EC50
# T1 construct: host or cells: CHO
# Method in brief: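 Antagonist mode: 15 min after compound addition, S1P (EC80) stimulates Fluo8-loaded, 1 h-starved CHO-S1PR2 cells, Ca2+ read over 3 min; a prior 3-min read checks compound agonism. EC50 from peak/baseline fluorescence ratio, normalised versus vehicle and S1P EC50 (antagonist) or EC100 (agonist).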
# [2] = biological target: T2, human GPCR sphingosine 1-phosphate receptor 1 (Homo sapiens, UniProt P21453); assay: S1PR1 selectivity Ca2+ flux assay (antagonist readout); format: cell-based
# T2 construct: host or cells: CHO
# T2 sequence (P21453 whole entry): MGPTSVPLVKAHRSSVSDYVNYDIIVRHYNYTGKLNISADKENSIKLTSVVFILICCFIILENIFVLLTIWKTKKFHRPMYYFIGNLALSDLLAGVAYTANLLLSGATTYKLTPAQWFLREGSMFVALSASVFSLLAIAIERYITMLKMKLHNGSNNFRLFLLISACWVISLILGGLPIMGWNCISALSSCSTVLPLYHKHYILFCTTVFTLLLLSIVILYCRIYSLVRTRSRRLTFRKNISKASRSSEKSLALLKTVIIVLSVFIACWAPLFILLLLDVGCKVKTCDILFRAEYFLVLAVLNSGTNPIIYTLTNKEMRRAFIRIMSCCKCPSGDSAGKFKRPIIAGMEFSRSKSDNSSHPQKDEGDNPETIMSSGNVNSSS
# Method: (§1) 50 μL of Chinese hamster ovary (CHO) cells stably overexpressing human S1PR1 or S1PR5 are seeded in 384 well sterile microplates (7,500 cells/well or 10,000 cells/well respectively) and are incubated overnight at 37° C. under 5% CO2. Cells are subsequently washed twice with 25 μL/well of starvation medium (F-12 Ham's medium containing 0.1% fatty acid free bovine serum albumin (FAF BSA)). After one h starvation at 37° C., 5% CO2, cells are loaded with 25 μL of Fluo 8 dye diluted in Hank's balanced salt solution (HBSS) with 20 mM Hepes complemented with 5 mM of probenecid following the recommendations of the manufacturer (one h at 37° C., 5% CO2). Dilution series of compounds are prepared in HBSS buffer with 20 mM Hepes and 0.1% BSA (FAF). 10 μL of diluted compound is added to the cells using the FDSS/pCELL and intracellular calcium changes are measured immediately by recording fluorescence during 3 min (agonist readout). The ratio of maximal signal over background before compound injection is used to determine compound response.
# After an incubation of 15 min at 37° C., following the agonist readout, the plates are transferred to the FDSS/pCELL reader. […] The ratio of maximal signal over background before S1P injection was used to determine the inhibitory effect ofthe compound.
# (§2) Raw data obtained in each experiment (ratio of maximal signal over background for calcium mobilization assays) were normalized in percentage of activation (agonist mode) or inhibition (antagonist mode) using positive and negative experiment controls. Each individual plate quality was assessed by evaluation of Z′ factor calculated with raw data using the following equation
# (§3) Y=bottom+(top−bottom)/(1+(10^(Log IC50−X)*Hillslope)) where X is the logarithm of the concentration of the compound
# S1PR2 = biological target: T3, S1PR2 (Homo sapiens, UniProt O95136); assay: S1PR2 binding assay (competition with radioactively labeled S1P, SpA); details: membranes from stable cell line over expressing S1PR2, SpA beads; read-out: S1P2 EC50 (nM), S1PR2 binding EC50
# T3 construct: expressed in transfected cells
# T3 sequence (O95136 whole entry): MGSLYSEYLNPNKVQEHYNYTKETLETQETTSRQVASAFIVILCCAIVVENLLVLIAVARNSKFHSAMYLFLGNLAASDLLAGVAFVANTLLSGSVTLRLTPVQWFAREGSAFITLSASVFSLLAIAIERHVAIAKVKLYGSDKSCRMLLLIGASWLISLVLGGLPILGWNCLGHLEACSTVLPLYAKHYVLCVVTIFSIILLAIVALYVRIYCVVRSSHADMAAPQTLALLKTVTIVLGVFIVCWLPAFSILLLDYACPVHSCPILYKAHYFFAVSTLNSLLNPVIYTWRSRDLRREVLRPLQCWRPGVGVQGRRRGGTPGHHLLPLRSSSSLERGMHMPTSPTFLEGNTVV
# Method in brief: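 Scintillation proximity read-out after 2 h room-temperature incubation of compound, [3H]S1P and S1PR2-overexpressing cell membranes on WGA-coated beads. Buffer: 20 mM Tris pH 7.5, 100 mM NaCl, 10 mM MgCl2, 1 mM Na3VO4, 0.4% fatty-acid-free BSA; plates counted immediately after centrifugation.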
# HFL-1 cells [3] = assay: IL8 assay in the presence of Human Serum Albumin; details: HFL1, read-out: HSA IL8 EC50
# [4] = biological target: T4, human GPCR sphingosine 1-phosphate receptor 5 (Homo sapiens, UniProt Q9H228); assay: S1PR5 selectivity Ca2+ flux assay (antagonist readout); format: cell-based; details: CHO cells overexpressing human S1PR5 and Gq, agonist at EC80 (20 nM), read-out: S1P5 EC50 (nM), S1P5 antagonist EC50
# T4 construct: host or cells: CHO
# T4 sequence (Q9H228 whole entry): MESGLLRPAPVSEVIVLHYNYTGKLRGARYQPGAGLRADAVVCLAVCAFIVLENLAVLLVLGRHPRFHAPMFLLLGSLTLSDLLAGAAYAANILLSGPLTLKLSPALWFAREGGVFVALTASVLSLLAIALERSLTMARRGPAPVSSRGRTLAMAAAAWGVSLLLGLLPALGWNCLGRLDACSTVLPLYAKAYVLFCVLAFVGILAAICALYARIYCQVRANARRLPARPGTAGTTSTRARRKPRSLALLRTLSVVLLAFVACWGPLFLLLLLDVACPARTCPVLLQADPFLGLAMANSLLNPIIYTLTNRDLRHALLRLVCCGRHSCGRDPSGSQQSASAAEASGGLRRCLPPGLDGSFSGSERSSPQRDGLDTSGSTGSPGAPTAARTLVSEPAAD
# Excerpt: To evaluate the selectivity of the compounds for S1PR2 over S1PR1 and S1PR5, asimilar assay set upas described above for theS1PR2 calcium flux assays waspeformed: CHO cells stably overexpressing human GPCR sphingosine 1-phosphate receptor 1 and Gq protein (Euroscreen, FAST-0197A) or overexpressing human GPCR sphingosine 1-phosphate receptorS5 and Gq protein were used (Perkin Elmer, ES-593-A). In case of the S1PR5 assay triggering was done with an SPR5 specific agonist instead of with S1P (Hobson et al., 2015).
# as §1
# After an incubation of 15 min at 37° C., following the agonist readout, the plates are transferred to the FDSS/pCELL reader. Cells are stimulated with 10 μL of EC80 concentration of S1P (6 nM for S1P1 and 20 nM for S1P5) and intracellular calcium changes are measured immediately by recording fluorescence during three min (antagonist readout). The ratio of maximal signal over background before S1P injection was used to determine the inhibitory effect ofthe compound.
# as §2, §3
# HFL-1 cells [5] = assay: IL-8 production assay (S1P induced IL-8); format: cell-based; details: Homo sapiens, HFL1; S1P (1 μM) induced IL-8 in HFL-1 cells, starvation medium without HSA; read-out: IL8 EC50
# Method in brief: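 HFL-1 fibroblasts in low-serum medium were pretreated 1 h with a 10-point 1/3 series of compound starting at 30 μM (0.3% DMSO).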
# [6] = antagonist readout, CHO cells overexpressing human S1PR1 and Gq, S1P at EC80 (6 nM), read-out: S1P1 EC50 (nM), S1P1 antagonist EC50
# T1 sequence (O95136 whole entry): as the sequence (O95136 whole entry) above
EC50 [1] [nM],EC50 (S1PR2) [nM],EC50 (HFL-1 cells [3]) [nM],EC50 [4] [nM],EC50 (HFL-1 cells [5]) [nM],"EC50 [2, 6] [nM]",SMILES,EC50 [2] [nM]
13.7,15.6,41.4,19800,6.14,,"O=C(Cn1nc(Cc2nc3cc(Cl)c(OCC4CC4)cc3[nH]2)c2ccccc2c1=O)NC1CCCC1 [Compound 150, 2-[4-[[5-chloro-6-(cyclopropylmethoxy)-1H-benzimidazol-2-yl]methyl]-1-oxo-phthalazin-2-yl]-N-cyclopentyl-acetamide]",
62.6,239,16500,,145,≥ 19900,"O=C(O)Cn1nc(Cn2cc3cc(OCC(F)(F)F)c(Cl)cc3n2)c2ccccc2c1=O [Compound 252, 2-[4-[[6-chloro-5-(2,2,2-trifluoroethoxy)indazol-2-yl]methyl]-1-oxo-phthalazin-2-yl]acetic acid]",
184,182,4130,,290,≥ 19900,"O=C(O)Cn1nc(Cn2cc3cc(OCC(F)F)c(Cl)cc3n2)c2ccccc2c1=O [Compound 253, 2-[4-[[6-chloro-5-(2,2-difluoroethoxy)indazol-2-yl)methyl]-1-oxo-phthalazin-2-yl]acetic acid]",
24.3,231,216,19800,53.9,,"O=C(O)Cn1nc(Cc2nc3nc(OCC4CC4)c(Cl)cc3[nH]2)c2ccccc2c1=O [Compound 257, 2-[4-[[6-chloro-5-(cyclopropylmethoxy)-1H-imidazo[4,5-b]pyridin-2-yl]methyl]-1-oxo-phthalazin-2-yl]acetic acid]",
,,217,19800,3.99,,"CC(C(=O)O)n1nc(Cn2cc3cc(OCC4CC4)c(Cl)cc3n2)c2ccccc2c1=O (stereo not shown) [compound 3, 2-[4-[[6-chloro-5-(cyclopropyl-methoxy)indazol-2-yl]methyl]-1-oxo-phthalazin-2-yl]propanoic acid]",
3.48,22,17.5,1620,1.52,,"O=C(O)c1nn(Cc2nc3cc(OCC4CC4)c(Cl)cc3[nH]2)c2ccccc2c1=O [compound 5, 1-[[6-chloro-5-(cyclopropyl-methoxy)-1H-benzimidazol-2-yl]methyl]-4-oxo-cinnoline-3-carboxylic acid]",
5.4,30.4,52.1,19800,2.52,,"CN(C)CC(C(=O)O)c1nn(Cc2nc3cc(C#N)c(OCC4CC4)cc3[nH]2)c2ccccc2c1=O (stereo not shown) [compound 21, (2-[1-[[5-cyano-6-(cyclopropyl-methoxy)-1H-benzimidazol-2-yl]methyl]-4-oxocinnolin-3-yl]-3-(dimethyl-amino)propanoic acid)]",

# Second part, the compound before the results:
SMILES,EC50 [1] [nM],EC50 (S1PR2) [nM],EC50 (HFL-1 cells [3]) [nM],EC50 [4] [nM],EC50 (HFL-1 cells [5]) [nM],"EC50 [2, 6] [nM]",EC50 [2] [nM]
CC(C(=O)O)n1nc(Cn2cc3cc(OCC(F)F)c(Cl)cc3n2)c2ccccc2c1=O (stereo not shown) [Compound 76],161,317,3430,19800,,,≥ 19800
"CCOc1cc2nc(Cc3nn(CC(=O)O)c(=O)c4c(C)cccc34)[nH]c2cc1Cl [Compound 77, 2-[4-[(6-chloro-5-ethoxy-1H-benzimidazol-2-yl)methyl]-8-methyl-1-oxo-phthalazin-2-yl]acetic acid]",29.8,241,27.4,6610,1.63,,
"O=C(O)Cn1nc(Cc2cn3cc(OCC4CC4)c(Cl)cc3n2)c2ccccc2c1=O [Compound 82, 2-[4-[[7-chloro-6-(cyclopropylmethoxy)imidazo[1,2-a]pyridin-2-yl]methyl]-1-oxo-phthalazin-2-yl]acetic acid]",,,390,4380,9.96,≥ 19800,
"CC(C(=O)O)n1nc(Cc2cn3cc(OCC4CC4)c(Cl)cc3n2)c2ccccc2c1=O (stereo not shown) [Compound 83, 2-[4-[[7-chloro-6-(cyclopropylmethoxy)imidazo[1,2-a]pyridin-2-yl]methyl]-1-oxo-phthalazin-2-yl]propanoic acid]",12.7,53.2,125,19800,,,≥ 19800
"CC(C(=O)O)n1nc(Cc2cn3cc(OCC4CC4)c(Cl)cc3n2)c2cc(F)ccc2c1=O (stereo not shown) [Compound 86, 2-[4-[[7-chloro-6-(cyclopropylmethoxy)imidazo[1,2-a]pyridin-2-yl]methyl]-6-fluoro-1-oxo-phthalazin-2-yl]propanoic acid]",6.33,28.7,97.1,19800,0.911,,
"CC(C)(C(=O)O)c1nn(Cc2cn3cc(OCC4CC4)c(Cl)cc3n2)c2ccccc2c1=O [Compound 88, 2-[1-[[7-chloro-6-(cyclopropylmethoxy)imidazo[1,2-a]pyridin-2-yl]methyl]-4-oxo-cinnolin-3-yl]-2-methyl-propanoic acid]",,,410,19800,29.8,≥ 19800,
"O=C(O)Cc1nn(Cc2cn3cc(OCC4CC4)c(C(F)(F)F)cc3n2)c2ccccc2c1=O [Compound 99, 2-[1-[[6-(cyclopropylmethoxy)-7-(trifluoromethyl)imidazo[1,2-a]pyridin-2-yl]methyl]-4-oxo-cinnolin-3-yl]acetic acid]",3.56,44.9,322,6610,,,
"CC(C(=O)O)c1nn(Cc2cn3cc(OCC4CC4)c(C(F)(F)F)cc3n2)c2ccccc2c1=O (stereo not shown) [Compound 100, 2-[1-[[6-(cyclopropylmethoxy)-7-(trifluoromethyl)imidazo[1,2-a]pyridin-2-yl]methyl]-4-oxo-cinnolin-3-yl]propanoic acid]",3.45,51.1,63.5,19800,4.97,,
"Cc1cccc2c1c(=O)c(CC(=O)O)nn2Cc1cn2cc(OCC3CC3)c(Cl)cc2n1 [Compound 102, 2-[1-[[7-chloro-6-(cyclopropylmethoxy)imidazo[1,2-a]pyridin-2-yl]methyl]-5-methyl-4-oxo-cinnolin-3-yl]acetic acid]",3.02,30,18,19800,,≥ 19800,
"N#Cc1cc2nc(Cn3nc(C(=O)O)c(=O)c4ccccc43)[nH]c2cc1OCC1CC1 [Compound 110, 1-[[5-cyano-6-(cyclopropylmethoxy)-1H-benzimidazol-2-yl]methyl]-4-oxo-cinnoline-3-carboxylic acid]",2.17,11.2,15.2,2240,2.37,,
"O=C(O)Cn1nc(Cn2cc3cc(OCC4CC4)c(Br)cc3n2)c2ccccc2c1=O [Compound 111, 2-[4-[[6-bromo-5-(cyclopropylmethoxy)indazol-2-yl]methyl]-1-oxo-phthalazin-2-yl]acetic acid]",15.2,49,1080,10000,42.2,,
